Read-outs that look alike come from different tables or passages of the source.

The source of these data is patent US7622506B2, “Naphthalenedione compounds for treating inflammation related disorders and microbial infection” (SunTen Phytotech Co., Ltd., priority 2006, dated 2009).

One test addresses T1, 5-Lipoxygenase (Homo sapiens, UniProt P09917).
T1 sequence (P09917 1-674): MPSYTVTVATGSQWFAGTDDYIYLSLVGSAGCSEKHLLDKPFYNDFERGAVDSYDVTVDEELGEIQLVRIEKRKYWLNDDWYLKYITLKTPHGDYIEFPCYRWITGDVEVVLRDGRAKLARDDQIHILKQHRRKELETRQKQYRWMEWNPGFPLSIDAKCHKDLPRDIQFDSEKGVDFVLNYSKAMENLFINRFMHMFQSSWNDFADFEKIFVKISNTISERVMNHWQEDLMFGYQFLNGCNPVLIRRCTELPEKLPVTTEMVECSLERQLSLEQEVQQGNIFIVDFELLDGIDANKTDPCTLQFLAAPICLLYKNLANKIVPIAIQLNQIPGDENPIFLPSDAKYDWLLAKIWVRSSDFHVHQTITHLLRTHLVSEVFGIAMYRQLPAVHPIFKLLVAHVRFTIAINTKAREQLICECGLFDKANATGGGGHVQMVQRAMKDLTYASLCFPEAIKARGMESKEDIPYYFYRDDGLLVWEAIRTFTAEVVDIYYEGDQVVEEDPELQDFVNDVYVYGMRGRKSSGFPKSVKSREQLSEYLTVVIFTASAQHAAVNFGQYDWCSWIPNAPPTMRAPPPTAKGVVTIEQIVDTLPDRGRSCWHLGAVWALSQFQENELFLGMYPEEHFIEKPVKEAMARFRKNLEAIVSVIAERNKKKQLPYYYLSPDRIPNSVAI
Kind of test: Inhibition of 5-Lipoxygenase activity. Format: biochemical. The text has this: 5-Lipoxygenase has been known to be a key enzyme in the bio-synthesis of leukotrienes, important mediators in inflammatory and allergic processes. […] The experiment was repeated using various concentrations of the compounds.

Test [1] has as its system methicillin-resistant Staphylococcus aureus (ATCC33591). As to the kind of experiment: Growth inhibition of methicillin-resistant Staphylococcus aureus (ATCC33591). Particulars: Table 5; repeated with various concentrations. Format: cell-based. The text has this: In this example, the inhibition by the aforementioned compounds or extracts on the growth of methicillin-resistant Staphylococcus aureus (ATCC33591) was studied by a method modified from those described in Modugno et al., Antimicrobial Agents and Chemotherapy, 1994, 38: 2362-2368, and Misiek et al., Antimicrobial Agents Chemotherapy, 1973, 3: 40-48.
The above experiments on Staphylococcus aureus and Propionibacterium acnes were repeated using various concentrations of the compounds.

Setting [2] is: 5-Lipoxygenase, IC50 (μM), Table 2A.
[3] abbreviates: Table 2A, concentration 10 μM, read-out: % Inhibition.
Where [4] appears, read: Table 2A, read-out: 5-Lipoxygenase, IC50.
Where [5] appears, read: Table 2B, read-out: 5-Lipoxygenase, IC50.

For orientation: inhibition means the change of the read-out against control, counted positive when it falls. A word on the IC50: it is the concentration that inhibits the measured activity by half. Regarding `CC(=O)O[C@H](CC=C(C)C)C1=CC(=O)c2c(O)ccc(O)c2C1=O` [ASK, (R)-1-(5,8-dihydroxy-1,4-dioxo-1,4-dihydronaphthalen-2-yl)-4-methylpent-3-enyl acetate], the inhibition at 10 µM at 5-Lipoxygenase came out at 99%. In addition, the IC50 on 5-Lipoxygenase (setting [2]) was 1.46 µM. Moreover, in test [1], the “Anti-microbial Activity, effective concentration range, MRSA (μM)” value (“Anti-microbial Activity … (μM)” for short) is on record as 0.9~3.0 μM.

As for `CC(C)=CC[C@@H](OC(=O)C=C(C)C)C1=CC(=O)c2c(O)ccc(O)c2C1=O` [BSK], the inhibition at 10 µM at 5-Lipoxygenase (setting [3]) came out at 99%. Moreover, on 5-Lipoxygenase (setting [4]), the IC50 came out at 1.2 µM. For the same molecule, the “Anti-microbial Activity, effective concentration range, MRSA” value in test [1] came to 2.8 µM.

As to `Cc1cc(C2CCCCC2)n(O)c(=O)c1` [Ciclpirox Olamine, reference compound], the inhibition at 30 µM against 5-Lipoxygenase (Table 2B, concentration 30 μM) is 66%. In addition, the IC50 at 5-Lipoxygenase (setting [5]) was found to be 16.9 µM. Also, the “Anti-microbial Activity, effective concentration range, MRSA” value in test [1] turned out to be 37.3 µM.

On to `CC(C)=CCCC1=CC(=O)c2c(O)ccc(O)c2C1=O` [DSK, 5,8-dihydroxy-2-(4-methylpent-3-enyl)naphthalene-1,4-dione], for which, at 5-Lipoxygenase, the inhibition at 10 µM turned out to be 53% and the inhibition at 10 µg/mL turned out to be 64%. On 5-Lipoxygenase (setting [2]), this molecule showed an IC50 of 7.01 µM. This molecule also had an IC50 against 5-Lipoxygenase (5-Lipoxygenase, IC50, Table 2B) of 20.1 µM. Besides, the “Anti-microbial Activity … (μM)” value in test [1] was 7.8~26.0 μM.

For `CC(C)=CC[C@@H](OC(=O)C(C)C)C1=CC(=O)c2c(O)ccc(O)c2C1=O` [ISK, (R)-1-(5,8-dihydroxy-1,4-dioxo-1,4-dihydronaphthalen-2-yl)-4-methylpent-3-enyl isobutyrate], the inhibition at 10 µM on 5-Lipoxygenase (setting [3]) came to 98%. The IC50 at 5-Lipoxygenase (setting [4]) was 1.54 µM. Also, the “Anti-microbial Activity, effective concentration range, MRSA” value in test [1] was 7.7 µM.

`CCC(C)C(=O)O[C@H](CC=C(C)C)C1=CC(=O)c2c(O)ccc(O)c2C1=O` (some centres unmarked) [MBSK, 1-(5,8-dihydroxy-1,4-dioxo-1,4-dihydronaphthalen-2-yl)-4-methylpent-3-enyl 2-methylbutanoate]: on 5-Lipoxygenase (setting [3]), the inhibition at 10 µM amounted to 98%. At 5-Lipoxygenase (setting [4]), the IC50 is 1.37 µM. Further, the “Anti-microbial Activity, effective concentration range, MRSA” value in test [1] turned out to be 2.7 µM.

`CC(C)=CC[C@@H](O)C1=CC(=O)c2c(O)ccc(O)c2C1=O` [SK, (R)-5,8-dihydroxy-2-(1-hydroxy-4-methylpent-3-enyl)naphthalene-1,4-dione]: at 5-Lipoxygenase, the IC50 amounted to 0.39 µM, the inhibition at 1 µM was 70%, the inhibition at 1 µg/mL came out at 51% and the inhibition at 10 µM was 101%. On 5-Lipoxygenase (5-Lipoxygenase, IC50, Table 2B), this molecule showed an IC50 of 2.93 µM. Further, in test [1], the “Anti-microbial Activity … (μM)” value was 10.4~34.7 μM.

For the molecule Gentamicin [reference compound], the “Anti-microbial Activity, effective concentration range, MRSA” value in test [1] amounted to 2.1 µM.

One may read the % Inhibition as the percentage by which the read-out fell short of the control. The low end stands for a response near the control, the high end for a response far below the control. As to “epigallocatechin-3 gallate [EGCG, reference compound]”, at 5-Lipoxygenase (Table 2B, concentration 100 μM), the “% Inhibition” value is listed as 58%. Moreover, the IC50 at 5-Lipoxygenase (setting [5]) was 87.2 µM.
